{"source": "patent EP0923292B1", "about": "“IMPROVED METHOD FOR SYSTEMIC ADMINISTRATION OF 2,4-DIENOIC ACID-TYPE INSECTICIDES TO TERRESTRIAL MAMMALS” (priority 1996, dated 1998)", "key": {"[1]": {"test_system": "C. felis", "conditions": "supplier's technical literature; cited from earlier work"}, "[2]": {"test_system": "adult cat fleas", "test": "Flea ovicidal activity in vitro: artificial feeding system with treated beef blood (Examples 4 and 6)", "parameters": "species or system C. felis", "conditions": "Ctenocephalides felis, read-out: Percent Inhibition of Flea Egg Hatching; for inhibition at 0.5 ppm: 0.5 ppm in beef blood; for inhibition at 5 ppm: 5.0 ppm in beef blood; for inhibition at 0.05 ppm: 0.05 ppm in beef blood", "from_the_text": "For the in vitro tests, an artificial feeding system with cages for adult cat fleas C. felis was used as described by Wade, S.E., et al., J. Med. Ent. 25(3): 186-190 (May 1988). Inside each cage were placed 100 one-week-old, unfed adult C. fells. Each cage included a container for treated blood separated from the fleas by a PARAFILM® membrane, and a compartment containing thin strips of paper to support loosely arranged clean dog hair and to provide a foothold for the fleas as they fed on the blood through the membrane.\nThe artificial feeding system and cages for adult cat fleas described in Example 3 were used. Beef blood was used for the feeding system, and was prepared by adding 35 mL of a 20% sodium citrate solution per liter of blood to prevent clotting. A stock solution of lufenuron was prepared by adding 50.1 mg of technical lufenuron to 4.951 g of dimethyl sulfoxide (DMSO) to yield a 1.0% solution. A 1,000 ppm solution was then prepared by diluting 1.0 mL of the 1.0% solution in 9.0 mL of DMSO, and a 100 ppm solution was prepared by diluting 1.0 mL of the 1,000 ppm solution in 9.0 mL of DMSO. Dimethyl sulfoxide itself was used as a control. To treat the blood, the various solutions (0.05 mL) were added to the citrated beef blood (100.0 mL) to yield beef blood solutions containing 5.0 ppm, 0.5 ppm, 0.05 ppm, and 0.00 (zero) ppm lufenuron. Each solution was mixed thoroughly, and 10 mL at each concentration were placed in each of five feeders in the artificial feeding system to serve as replicates. Each day fresh blood solutions identical to the originals were placed in the feeders.\nFlea eggs were collected from each replicate on days 3, 5 and 7. One hundred (100) healthy appearing […] were counted under a dissecting microscope from each replicate, divided into two subsamples per replicate, and placed in 60 mm x 15 mm plastic petri dishes. The samples were incubated at 78°F and 85% relative humidity for three days, then scored for larval hatch using by visual observation through the dissecting microscope. The data from all replicates at each concentration were combined to yield the mean percent egg hatch, and the percent inhibition of egg hatch was calculated relative to the control.\nRetuming to (S)-methoprene, this example presents in vitro flea ovicidal activity using beef blood, for comparison with Example 4. Procedures using beef blood were the same as those indicated in the previous examples."}, "[3]": {"conditions": "remaining for at least 14 days after the administration of a single dose of 10 mg/kg; supplier's technical literature; cited from earlier work"}, "[4]": {"test_system": "C. Felis fleas", "test": "Lufenuron systemic flea ovicidal activity upon oral administration to host dogs (Example 5)", "type": "in vivo, C. felis (host: dogs)", "conditions": "oral single doses of 10 mg/kg at Day 0 and Day 28", "description": "Flea eggs were collected on Days -7, 0, 1, 2, 4, 7, and weekly thereafter through Day 63. Prior to egg collection, the cages in which the dogs were housed and the collection trays were rinsed with isopropyl alcohol, and the water was turned off, feed bowls and resting pads were removed from each cage. Trays covered with a screen made of […] hardware cloth were placed under the cages, and heavy white butcher paper was placed under the hardware cloth. After an interval of 14-16 hours, the paper was swept and the debris and flea eggs thus collected were transferred to a metal pan. The debris was separated from the eggs by sieving, and the eggs were placed in half-pint plastic cartons, then transferred to 10 cm x 10 cm glass plates. Using a dissecting microscope and a fine tipped artist brush, 100 flea eggs were counted from the sweepings of each dog and separated into four replicates of 25 eggs each. The eggs were placed in a 15 mm x 60 mm disposable plastic petri dish and incubated at 79-80°F and 80% relative humidity. Seventy two hours after collection, larvae emergence was determined. Both dead and live larvae were counted to determine the ovicidal effect of the treatment.\nSix random bred and purebred, clinically healthy dogs, three male and three female, ranging in weight from 5.5 kg to 17.2 kg each and in age from 5 months to 42 months, and having hair coats ranging from medium to coarse and from 1.0 to 5.0 cm in length, were used. The dogs were divided into two treatment groups of three dogs each. The dogs were all maintained on regular feeding schedules of dog food and water, and each dog in one of the two groups was administered an appropriate number of lufenuron-containing gelatin capsules to achieve a dosage of 10 mg/kg of the body weight of the dog. This dosage is identified in the supplier's technical literature as the minimum effective dosage for C. felis in dogs, and the dosage that will result in a blood concentration level of 0.05 ppm remaining for at least 14 days after the administration of a single dose. Administration was performed at Day 0 and again at Day 28.\nOn Days -8 (eight days before the lufenuron administration), -4, 3, 10, 17, 24, 31, 38, 45, 52, and 59, approximately 100 unfed adult C. Felis fleas were applied to each dog by standard procedures. Flea eggs were collected and larval emergence (egg hatching) was determined by the procedures of Example 2 on Days -4, 0, 1, 2, 4, 7, 14, 21, 28, 35, 42, 49, and 56."}}, "note": "Read-outs that look alike come from different tables or passages of the source."}
{"smiles": "O=C(NC(=O)c1c(F)cccc1F)Nc1cc(Cl)c(OC(F)(F)C(F)C(F)(F)F)cc1Cl", "note": "(stereo not drawn) [Lufenuron]", "values": [{"measurement": "minimum effective dosage for C. felis in dogs", "setting": "[1]", "value": 10, "unit": "mg/kg"}, {"measurement": "inhibition at 0.5 ppm", "setting": "[2]; 72 h, day 3, low number of eggs produced in both controls and treated groups", "value": 80.6, "unit": "%"}, {"measurement": "inhibition at 5 ppm", "setting": "[2]; 72 h, day 3", "value": 100, "unit": "%"}, {"measurement": "inhibition at 0.05 ppm", "setting": "[2]; 120 h, day 5", "value": 10.8, "unit": "%"}, {"measurement": "inhibition at 0.5 ppm", "setting": "[2]; 120 h, day 5", "value": 56.5, "unit": "%"}, {"measurement": "inhibition at 5 ppm", "setting": "[2]; 120 h, day 5", "value": 99.8, "unit": "%"}, {"measurement": "inhibition at 0.05 ppm", "setting": "[2]; 168 h, day 7", "value": 6.9, "unit": "%"}, {"measurement": "inhibition at 0.5 ppm", "setting": "[2]; 168 h, day 7", "value": 63.2, "unit": "%"}, {"measurement": "inhibition at 5 ppm", "setting": "[2]; 168 h, day 7", "value": 100, "unit": "%"}, {"measurement": "blood concentration level", "setting": "[3]", "value": 0.05, "unit": "ppm"}, {"measurement": "Percent Inhibition of Flea Egg Hatching", "setting": "[4]; Day 1", "value": 39.9, "unit": "%"}, {"measurement": "Percent Inhibition of Flea Egg Hatching", "setting": "[4]; Day 2", "value": 70.6, "unit": "%"}, {"measurement": "Percent Inhibition of Flea Egg Hatching", "setting": "[4]; Day 4", "value": 54.5, "unit": "%"}, {"measurement": "Percent Inhibition of Flea Egg Hatching", "setting": "[4]; Day 7", "value": 54.1, "unit": "%"}, {"measurement": "Percent Inhibition of Flea Egg Hatching", "setting": "[4]; Day 14", "value": 52.1, "unit": "%"}, {"measurement": "Percent Inhibition of Flea Egg Hatching", "setting": "[4]; Day 21", "value": 10.7, "unit": "%"}, {"measurement": "Percent Inhibition of Flea Egg Hatching", "setting": "[4]; Day 28", "value": 0, "unit": "%"}, {"measurement": "Percent Inhibition of Flea Egg Hatching", "setting": "[4]; Day 35", "value": 48.6, "unit": "%"}, {"measurement": "Percent Inhibition of Flea Egg Hatching", "setting": "[4]; Day 42", "value": 0, "unit": "%"}, {"measurement": "Percent Inhibition of Flea Egg Hatching", "setting": "[4]; Day 49", "value": 72.7, "unit": "%"}, {"measurement": "Percent Inhibition of Flea Egg Hatching", "setting": "[4]; Day 56", "value": 20.5, "unit": "%"}]}
